Reference: publication PMC7764243, “Alterins Produced by Oyster-Associated Pseudoalteromonas Are Antibacterial Cyclolipopeptides with LPS-Binding Activity” (Marine Drugs, 2020)
Converted amounts (≈) assume the structure as drawn. *1 amine or outer side, *2 acyl side, *3 side chain or, on linkers, in order; H or OH if unused. Where a SMILES comes first, the peptide text is derived from it. Bridges are numbered along the chain shown (N, C = ends). [ ]: non-standard residue; d: D form. The star is where a group is joined. ξ: configuration not given here. Dab(3ξ-OH) = O=C([C@@H](N[*:1])C(O)CN[*:3])[*:2]; X1 = C/C=C(/N[*:1])C(=O)[*:2]; Nonanoyl = CCCCCCCCC(=O)*; Octanoyl = CCCCCCCC(=O)*; Dab = NCC[C@H](N)C(=O)O; X2 = CCCC/C=C\CCCC(=O)*

Experiments:
S. enterica CIP 8297 = format: cell-based, Salmonella enterica; details: broth microdilution, 0.1 to 100 µM, 1.10^6 UFC/mL, 48 h, read by unaided eye
Procedure: (§1) Antibacterial activity was assayed against a panel of micro-organisms including human and aquaculture pathogenic bacterial species. MICs were performed and defined according to internationally recognized standards (CLSI [21]). Polymyxin B (PMB), an antibiotic CLP produced by Paenibacillus polymyxa, was used as positive control. The major produced alterins, i.e., alt_952, alt_954, alt_970 and alt_980 were assayed against the whole panel of target cells while the minor ones were only tested against a few bacterial strains (Table 2).
(§2) The bacterial strains Aeromonas caviae CIP 7616, Aeromonas hydrophila CIP 7614, Escherichia coli ML35, Escherichia coli SBS 363, Salmonella enterica CIP 8297 and Yersinia ruckeri ATCC 29473 were grown in Tryptic Soy Broth. The marine bacterial strains Vibrio crassostreaeJ2–9, Vibrio tasmaniensisLGP32, Vibrio tapetis CECT 4600 were grown in Marine Broth. All of them were cultivated at optimal temperature according to ATCC and CIP specifications. The strain Vibrio parahaemolyticus13-028A/3 was grown at 28 °C in Tryptic Soy Broth supplemented in NaCl (20 g.L^−1) according to [47]. The strains Pseudoalteromonas sp. hCg-6 and hCg-42 were cultured using a synthetic medium containing: 17.11 g sucrose, 30 g sea salts (Sigma-S9883), 7.6 g K2HPO4, 3 g KH2PO4 and 20 mL MEM 50X (Dulbecco) per liter. The cultures were grown at 18 °C for 72 h with shaking (100 rpm).
(§3) MICs were determined using broth microdilution method according to [21]. To resume, antibacterial compounds ranging from 0.1 to 100 µM were assayed against the target bacteria in mid-logarithmic phase culture (1.10^6 UFC.mL^−1) in adapted culture medium according to the strain. MICs were examined by unaided eye after a 48h-incubation time at the optimal temperature growth. The lipopeptide PMB (Sigma-P4932) was used as antibiotic control.

P. aeruginosa ATCC 27853 = format: cell-based, Pseudomonas aeruginosa; details: ATCC 27853, 48 h
Procedure: as §1, §3

E. coli ML35 = format: cell-based, Escherichia coli; details: ML35, 48 h
Procedure: as §1, §2, §3

E. coli SBS363 = format: cell-based, Escherichia coli; details: E. coli SBS363 (short-chain LPS); broth microdilution, 0.1 to 100 µM, 1.10^6 UFC/mL, 48 h, read by unaided eye
Procedure: as §1, §2, §3

V. harveyi ORM4 = format: cell-based, Vibrio harveyi; details: ORM4, 48 h
Procedure: as §1, §3

Pseudoalteromonas hCg-6 = format: cell-based, Pseudoalteromonas sp.; details: 48 h
Procedure: as §1, §2, §3

V. tasmaniensis LGP 32 = format: cell-based, Vibrio tasmaniensis; details: 48 h
Procedure: as §1, §2, §3

A. hydrophila CIP 7614 = format: cell-based, Aeromonas hydrophila; details: CIP 7614, 48 h
Procedure: as §1, §2, §3

Y. ruckeri ATCC 29473 = format: cell-based, Yersinia ruckeri; details: ATCC 29473, 48 h
Procedure: as §1, §2, §3

Pseudoalteromonas hCg-42 = format: cell-based, Pseudoalteromonas sp.; details: 48 h
Procedure: as §1, §2, §3

[1] = test system: Vibrio tasmaniensis LGP32; experiment: Membrane potential, DiBAC4(3) flow cytometry; format: cell-based
Procedure: To assess alterin physiological impact on Gram-negative cells, flow cytometry analyses were implemented using Live/Dead cell viability assay and the membrane potential dye, DiBAC4(3) on V. tasmaniensis LGP32 treated as previously (i.e., […]).
The membrane potential of the target bacteria was analysed using the potential-sensitive probe Bis-1,3-Dibutylbarbituric AcideTrimethineOxonol, (DiBAC4(3), MolecularProbes). DiBAC4(3) was reconstituted in DMSO stock solution at 1mM and stocked at −20 °C until use. Samples (500 µL) were incubated with 1 µL of DiBAC4(3) stock solution for 10mn in the dark. Under the effect of depolarization cells accumulate DiBAC4(3), fluoresce bright green and can easily be detected by flow cytometry. After excitation at 488 nm cells with depolarized membrane become fluorescent and reemit at 516 nm recovery of the signal at FL1. Positive control of the initial sample is carried out with 20% alcohol.

V. tasmaniensis LGP32 = experiment: Viability (cultivability, CFU count) in seawater; format: cell-based, Vibrio tasmaniensis
Procedure: As a first step, we have measured the antimicrobial activity of alt_952, alt_954, alt_970 and alt_980 against V. tasmaniensis LGP32 in seawater after a 4 hour-long incubation. […] The effects on membrane were also investigated under the same experimental conditions using live/dead bacterial viability kit for flow cytometry (Figure 6). A net cultivability loss of V. tasmaniensis (2-log reduction) was observed when incubated with alt_954 and alt_980 indicative of a bactericidal effect (Figure 7A). In these conditions, V. tasmaniensis was much less affected by alt_970 (1-log reduction) and not by alt_952 (Figure 7A).
[…] After a 4 h-long incubation, viable bacteria were counted. Diluted samples (50 µL) in sterile seawater were spread in duplicate on appropriate medium. Cultivable bacterial concentration (CFU mL^−1) was determined after overnight incubation at optimal growth temperature.

V. tapetis CECT 4600T = format: cell-based, Vibrio tapetis; details: CECT 4600, 48 h
Procedure: as §1, §2, §3

| SMILES | MIC (S. enterica CIP 8297) | MIC (P. aeruginosa ATCC 27853) | MIC (E. coli ML35) | MIC (E. coli SBS363) | MIC (V. harveyi ORM4) | MIC (Pseudoalteromonas hCg-6) | MIC (V. tasmaniensis LGP 32) | MIC (A. hydrophila CIP 7614) | MIC (Y. ruckeri ATCC 29473) | MIC (Pseudoalteromonas hCg-42) | cells with depolarized membrane ([1]; 20 µM, 4 h in sterile seawater) | cells depolarization ([1]; 300 µM, 4 h in seawater) | cultivability loss of V. tasmaniensis (log reduction of CFU) (V. tasmaniensis LGP32; 20 µM, 4 h incubation in sterile seawater, inoculum 1.10^6 UFC/mL, plated in duplicate) | cultivability loss of V. tasmaniensis (V. tasmaniensis LGP32; 300 µM, 4 h in seawater (data not shown)) | MIC (V. tapetis CECT 4600T) |
| --- | --- | --- | --- | --- | --- | --- | --- | --- | --- | --- | --- | --- | --- | --- | --- |
| C/C=C1/NC(=O)[C@@H](NC(=O)CCCCCCC)C(O)CNC(=O)[C@H](C(O)CN)NC(=O)[C@H](C(O)CN)NC(=O)[C@H](CCCNC(=N)N)NC(=O)[C@H](CC(C)C)NC(=O)[C@H](CCN)NC1=O (stereo partly shown) [alt_926] (Octanoyl-[Dab(3ξ-OH)][X1][Dab]LR[Dab(3ξ-OH)][Dab(3ξ-OH)]; lactam 1-C) | 12.5 µM (≈ 11.6 µg/mL) | >100 µM | 100 µM (≈ 92.7 µg/mL) | 50 µM (≈ 46.4 µg/mL) | 50 µM (≈ 46.4 µg/mL) | >100 µM | 50 µM (≈ 46.4 µg/mL) | >100 µM | 50 µM (≈ 46.4 µg/mL) | – | – | – | – | – | – |
| C/C=C1/NC(=O)[C@@H](NC(=O)CCCCCCCC)C(O)CNC(=O)[C@H](C(O)CN)NC(=O)[C@H](C(O)CN)NC(=O)[C@H](CCCNC(=N)N)NC(=O)[C@H](CC(C)C)NC(=O)[C@H](CCN)NC1=O (stereo partly shown) [alt_940] (Nonanoyl-[Dab(3ξ-OH)][X1][Dab]LR[Dab(3ξ-OH)][Dab(3ξ-OH)]; lactam 1-C) | – | 50 µM (≈ 47.1 µg/mL) | 50 µM (≈ 47.1 µg/mL) | 25 µM (≈ 23.5 µg/mL) | 6.25 µM (≈ 5.88 µg/mL) | >100 µM | 6.25 µM (≈ 5.88 µg/mL) | 25 µM (≈ 23.5 µg/mL) | 6.25 µM (≈ 5.88 µg/mL) | – | – | – | – | – | – |
| C/C=C1/NC(=O)[C@@H](NC(=O)CCC/C=C\CCCC)C(O)CNC(=O)[C@H](C(O)CN)NC(=O)[C@H](C(O)CN)NC(=O)[C@H](CCCNC(=N)N)NC(=O)[C@H](CC(C)C)NC(=O)[C@H](CCN)NC1=O (stereo partly shown) [alt_952] (X2-[Dab(3ξ-OH)][X1][Dab]LR[Dab(3ξ-OH)][Dab(3ξ-OH)]; lactam 1-C) | 6.25 µM (≈ 5.96 µg/mL) | 50 µM (≈ 47.7 µg/mL) | 25 µM (≈ 23.8 µg/mL) | 0.8 µM (≈ 0.763 µg/mL) | 12.5 µM (≈ 11.9 µg/mL) | >100 µM | 50 µM (≈ 47.7 µg/mL) | – | 0.4 µM (≈ 0.381 µg/mL) | >100 µM | around 55% | 100% | no antibacterial effect | identical to those observed using alt_954 and alt_980 at 20 µM | >100 µM |
